Experimental data reported in ChEMBL document CHEMBL5380777, “Efficacy, Mechanism, and Structure-Activity Relationship of 6-Methoxy Benzofuran Derivatives as a Useful Tool for Senile Osteoporosis” (J Med Chem, 2023).
The source made the active and inactive calls. No cut-off for these calls is given here.

How the values were obtained:
[1] = Toxicity in 2.5 months old SAMP-6 rapid aging mouse model assessed as morphological change in liver administered at 30 mg/kg/day, IG continuously for 3 months by hematoxylin and eosin staining analysis; assay type: organism-based; conditions: in vivo, po, 2190 h
[2] = Toxicity in 16 months old C57 mouse assessed as change in serum ALT level administered at 30 mg/kg/day, IG continuously for 4 months; assay type: organism-based; conditions: in vivo, po, 2920 h
[3] = tested on: Osteoblast; experiment: Upregulation of transcription factor MKRN1 expression in 16 months old C57 mouse osteoblast by scRNA-seq analysis; assay type: functional, cell-based
[4] = tested on: Osteoblast; experiment: Upregulation of transcription factor HMGA1 expression in 16 months old C57 mouse osteoblast by scRNA-seq analysis; assay type: functional, cell-based
[5] = tested on: Osteoblast; experiment: Upregulation of BMP-2 expression in 16 months old C57 mouse osteoblast by scRNA-seq analysis; assay type: functional, cell-based
[6] = tested on: Osteoblast; experiment: Upregulation of transcription factor PSMD12 expression in 16 months old C57 mouse osteoblast by scRNA-seq analysis; assay type: functional, cell-based
[7] = tested on: Mus musculus; experiment: Anti osteoporosis in 16 months old C57 mouse assessed as myeloid progenitor level in femur administered at 30 mg/kg/day, IG continuously for 4 months by scRNA-seq analysis (reference value: 2.18%); assay type: functional; conditions: 2920 h
[8] = Toxicity in 2.5 months old SAMP-6 rapid aging mouse model assessed as change in triglyceride level administered at 30 mg/kg/day, IG continuously for 3 months in presence of ALN; assay type: organism-based; conditions: in vivo, po, 2190 h
[9] = Toxicity in 2.5 months old SAMP-6 rapid aging mouse model assessed as morphological change in liver administered at 30 mg/kg/day, IG continuously for 3 months in presence of ALN by hematoxylin and eosin staining analysis; assay type: organism-based; conditions: in vivo, po, 2190 h
[10] = Toxicity in 2.5 months old SAMP-6 rapid aging mouse model assessed as change in triglyceride level administered at 30 mg/kg/day, IG continuously for 3 months; assay type: organism-based; conditions: in vivo, po, 2190 h
[11] = tested on: Mus musculus; experiment: Anti osteoporosis in 2.5 months old SAMP-6 rapid aging mouse model assessed as upregulation of serum BMP2 administered at 30 mg/kg/day, IG continuously for 3 months […]; assay type: functional, organism-based
[12] = tested on: Mus musculus; experiment: Anti osteoporosis in 16 months old C57 mouse assessed as erythroblast level in femur administered at 30 mg/kg/day, IG continuously for 4 months by scRNA-seq analysis (reference value: 1.91%); assay type: functional; conditions: 2920 h
[13] = tested on: Mus musculus; experiment: Anti osteoporosis in 16 months old C57 mouse assessed as proliferating granulocyte level in femur administered at 30 mg/kg/day, IG continuously for 4 months by scRNA-seq analysis (reference value: 6.29%); assay type: functional; conditions: 2920 h
[14] = tested on: Osteoclast; experiment: Upregulation of BMP-2 expression in 16 months old C57 mouse osteoclast by scRNA-seq analysis; assay type: functional, cell-based
[15] = tested on: Mus musculus; experiment: Anti osteoporosis in 16 months old C57 mouse assessed as endothelial cell level in femur administered at 30 mg/kg/day, IG continuously for 4 months by scRNA-seq analysis (reference value: 2.34%); assay type: functional; conditions: 2920 h
[16] = tested on: Osteoblast; experiment: Regulation of osteogenesis in 16 months old C57 mouse osteoblast endoplasmic reticulum assessed as increase in Hspa1b gene by scRNA-seq analysis; assay type: functional, cell-based
[17] = tested on: Mus musculus; experiment: Anti osteoporosis in 16 months old C57 mouse assessed as osteoclast level in femur administered at 30 mg/kg/day, IG continuously for 4 months by scRNA-seq analysis (reference value: 6.52%); assay type: functional; conditions: 2920 h
[18] = tested on: Mus musculus; experiment: Anti osteoporosis in 16 months old C57 mouse assessed as fold increase in osteoclast level in femur administered at 30 mg/kg/day, IG continuously for 4 months by scRNA-seq analysis relative to control; assay type: functional; conditions: 2920 h
[19] = tested on: Osteoblast; experiment: Upregulation of transcription factor CSDE1 expression in 16 months old C57 mouse osteoblast by scRNA-seq analysis; assay type: functional, cell-based
[20] = tested on: Mus musculus; experiment: Anti osteoporosis in 16 months old C57 mouse assessed as B cell level in femur administered at 30 mg/kg/day, IG continuously for 4 months by scRNA-seq analysis (reference value: 5.19%); assay type: functional; conditions: 2920 h
[21] = tested on: Mus musculus; experiment: Anti osteoporosis in 16 months old C57 mouse assessed as megakaryocyte level in femur administered at 30 mg/kg/day, IG continuously for 4 months by scRNA-seq analysis (reference value: 1%); assay type: functional; conditions: 2920 h
[22] = tested on: Mus musculus; experiment: Anti osteoporosis in 2.5 months old SAMP-6 rapid aging mouse model assessed as bone mass maintenance administered at 30 mg/kg/day, IG continuously for 3 months; assay type: functional, organism-based
[23] = Toxicity in 16 months old C57 mouse assessed as change in serum AST level administered at 30 mg/kg/day, IG continuously for 4 months; assay type: organism-based; conditions: in vivo, po, 2920 h
[24] = tested on: Mus musculus; experiment: Anti osteoporosis in 2.5 months old SAMP-6 rapid aging mouse model assessed as increase in bone mass administered at 30 mg/kg/day, IG continuously for 3 months by micro CT analysis; assay type: functional, organism-based
[25] = tested on: Mus musculus; experiment: Anti osteoporosis in 16 months old C57 mouse assessed as macrophage level in femur administered at 30 mg/kg/day, IG continuously for 4 months by scRNA-seq analysis (reference value: 1.88%); assay type: functional; conditions: 2920 h
[26] = Toxicity in 2.5 months old SAMP-6 rapid aging mouse model assessed as change in urea level administered at 30 mg/kg/day, IG continuously for 3 months in presence of ALN; assay type: organism-based; conditions: in vivo, po, 2190 h
[27] = tested on: Osteoblast; experiment: Upregulation of transcription factor […] expression in 16 months old C57 mouse osteoblast by scRNA-seq analysis; assay type: functional, cell-based
[28] = tested on: Mus musculus; experiment: Anti osteoporosis in 16 months old C57 mouse assessed as reconstruction of bone microstructure administered at 30 mg/kg/day, IG continuously for 4 months by micro CT analysis relative to aged control group; assay type: functional, organism-based
[29] = Toxicity in 16 months old C57 mouse assessed as change in body weight administered at 30 mg/kg/day, IG continuously for 4 months relative to aged control group; assay type: organism-based; conditions: in vivo, po, 2920 h
[30] = Toxicity in 16 months old C57 mouse assessed as change in alkaline phosphatase level administered at 30 mg/kg/day, IG continuously for 4 months; assay type: organism-based; conditions: in vivo, po, 2920 h
[31] = Toxicity in 2.5 months old SAMP-6 rapid aging mouse model assessed as change in serum ALT level administered at 30 mg/kg/day, IG continuously for 3 months in presence of ALN; assay type: organism-based; conditions: in vivo, po, 2190 h
[32] = tested on: Osteoblast; experiment: Regulation of osteogenesis in 16 months old C57 mouse osteoblast endoplasmic reticulum assessed as increase in Atf4 gene by scRNA-seq analysis; assay type: functional, cell-based
[33] = tested on: Mus musculus; experiment: Anti osteoporosis in 2.5 months old SAMP-6 rapid aging mouse model assessed as increase in bone mass administered at 30 mg/kg/day, IG continuously for 3 months in presence of ALN by micro CT analysis; assay type: functional, organism-based
[34] = Toxicity in 16 months old C57 mouse assessed as change in creatinine level administered at 30 mg/kg/day, IG continuously for 4 months; assay type: organism-based; conditions: in vivo, po, 2920 h
[35] = Toxicity in 16 months old C57 mouse assessed as change in total protein level administered at 30 mg/kg/day, IG continuously for 4 months; assay type: organism-based; conditions: in vivo, po, 2920 h
[36] = tested on: Osteoblast; experiment: Regulation of osteogenesis in 16 months old C57 mouse osteoblast endoplasmic reticulum assessed as increase in Dnaja1 gene by scRNA-seq analysis; assay type: functional, cell-based
[37] = Toxicity in 2.5 months old SAMP-6 rapid aging mouse model assessed as change in creatinine level administered at 30 mg/kg/day, IG continuously for 3 months in presence of ALN; assay type: organism-based; conditions: in vivo, po, 2190 h

Q: Which Activity [1] does the source give for `COc1ccc2cc(C(=O)NCCN(C)C)oc2c1.CS(=O)(=O)O` here?
A: Its Activity is “Non-Toxic”.

Q: And the Activity [2]?
A: Its Activity is “Non-Toxic”.

Q: And the Activity [3]?
A: Its Activity is “Active”.

Q: And the Activity [4]?
A: The Activity was “Active”.

Q: And the Activity [5]?
A: The Activity was “Active”.

Q: And the Activity [6]?
A: Its Activity is “Active”.

Q: And the Activity [7]?
A: Its Activity is 0.32%.

Q: And the Activity [8]?
A: Its Activity is “Non-Toxic”.

Q: And the Activity [9]?
A: The Activity was “Non-Toxic”.

Q: What about the Activity [10] of the same compound?
A: The Activity was “Non-Toxic”.

Q: What about the Activity [11] of the same compound?
A: The Activity was “Active”.

Q: And the Activity [12]?
A: Its Activity is 1.42%.

Q: What about the Activity [13] of the same compound?
A: The Activity was 4.71%.

Q: And the Activity [14]?
A: The Activity was “Active”.

Q: And the Activity [15]?
A: The Activity was 2.38%.

Q: What about the Activity [16] of the same compound?
A: Its Activity is “Active”.

Q: What about the Activity [17] of the same compound?
A: Its Activity is 12.12%.

Q: What about the “fold change (FC)” value [18] of the same compound?
A: Its value is 3.

Q: And the Activity [19]?
A: Its Activity is “Active”.

Q: What about the Activity [20] of the same compound?
A: Its Activity is 3.05%.

Q: What about the Activity [21] of the same compound?
A: The Activity was 0.78%.

Q: What about the Activity [22] of the same compound?
A: The Activity was “Active”.

Q: And the Activity [23]?
A: Its Activity is “Non-Toxic”.

Q: And the Activity [24]?
A: Its Activity is “Active”.

Q: What about the Activity [25] of the same compound?
A: Its Activity is 1.33%.

Q: What about the Activity [26] of the same compound?
A: Its Activity is “Non-Toxic”.

Q: And the Activity [27]?
A: Its Activity is “Active”.

Q: And the Activity [28]?
A: Its Activity is “Active”.

Q: And the Activity [29]?
A: The Activity was “Non-Toxic”.

Q: And the Activity [30]?
A: Its Activity is “Non-Toxic”.

Q: What about the Activity [31] of the same compound?
A: Its Activity is “Non-Toxic”.

Q: What about the Activity [32] of the same compound?
A: The Activity was “Active”.

Q: And the Activity [33]?
A: Its Activity is “Active”.

Q: And the Activity [34]?
A: The Activity was “Non-Toxic”.

Q: And the Activity [35]?
A: The Activity was “Non-Toxic”.

Q: What about the Activity [36] of the same compound?
A: Its Activity is “Active”.

Q: What about the Activity [37] of the same compound?
A: The Activity was “Non-Toxic”.
